Key:
[1] = system: HT-29 (colon cancer); experiment: CellTiter-Glo luminescent cell viability assay, HT-29; assay type: cell-based, human; conditions: 48 hours, FIG. 3
Description: Luciferase luminescence were recorded for each well.

[2] = system: AML12 liver cells; experiment: Toxicity on AML12 liver cells; assay type: cell-based; conditions: all doses studied (16 to 128 nM); 48 hours; FIG. 14
From the text: (§1) Methodologies used for cell line AML12 (non-cancerous liver cells) and CCD841 (non-cancerous colon epithelial cells) are similar to the methods used for cancer cells.

[3] = system: CCD841 colon epithelium cells; experiment: Toxicity on CCD841 colon epithelium cells; assay type: cell-based; conditions: all concentrations tested (16 to 128 nM); 48 hours; FIG. 15
From the text: as §1

Nc1nc(=O)c2c(CCc3ccc(C(=O)N[C@@H](CCC(=O)N[C@@H](CCC(=O)N[C@@H](CCC(=O)N[C@@H](CCC(=O)N[C@@H](CCC(=O)N[C@@H](CCC(=O)O)C(=O)O)C(=O)O)C(=O)O)C(=O)O)C(=O)O)C(=O)O)cc3)c[nH]c2[nH]1 [gG6, pemetrexed L-gamma hexaglutamate]
potency rank among test articles [1]: least potent

Nc1nc2[nH]cc(CCc3ccc(C(=O)N[C@@H](CCC(=O)O)C(=O)O)cc3)c2c(=O)[nH]1 [pemetrexed]
reduction in AML12 liver cell counts [2]: approximately 40%
decrease in the number of CCD841 colon epithelium cells [3]: ≥ 50%
